Measured values as given in patent US20210254056A1, “IDENTIFICATION AND TARGETED MODULATION OF GENE SIGNALING NETWORKS” (CAMP4 THERAPEUTICS CORPORATION, priority 2017, published 2021).

System: hepatocytes
Experiment: RNA-seq of hepatocytes treated with Phase III failure compounds
Description: RNA-seq was performed to determine the effects of the compounds on hepatocytes.
Significance was determined by the criteria of FPKM≥0.5, a log 2(fold-change)≥1, and a […].

## CCC(CC)[C@H](NC(C)=O)[C@@H]1[C@H](O)[C@@H](C(=O)O)C[C@H]1NC(=N)N.O.O.O [peramivir (trihydrate), peramivir]
PFKM expression in hepatocytes
  RNA-seq results, gene PFKM: 0.02
PGM1 expression in hepatocytes
  RNA-seq results, gene PGM1: 0.01
PHGDH expression in hepatocytes
  RNA-seq results, gene PHGDH: 0.67
PHKA1 expression in hepatocytes
  RNA-seq results, gene PHKA1: 0.42
PHKA2 expression in hepatocytes
  RNA-seq results, gene PHKA2: −0.03
PHKB expression in hepatocytes
  RNA-seq results, gene PHKB: −0.06
PHYH expression in hepatocytes
  RNA-seq results, gene PHYH: −0.05
PIEZO1 expression in hepatocytes
  RNA-seq results, gene PIEZO1: 0.08
PIGA expression in hepatocytes
  RNA-seq results, gene PIGA: −0.01
PIGM expression in hepatocytes
  RNA-seq results, gene PIGM: 0.04
PKD1 expression in hepatocytes
  RNA-seq results, gene PKD1: 0.39
PKD2 expression in hepatocytes
  RNA-seq results, gene PKD2: −0.13
PKHD1 expression in hepatocytes
  RNA-seq results, gene PKHD1: −0.79
PKLR expression in hepatocytes
  RNA-seq results, gene PKLR: 0.01
PLA2G6 expression in hepatocytes
  RNA-seq results, gene PLA2G6: 0.31
PLEKHM1 expression in hepatocytes
  RNA-seq results, gene PLEKHM1: 0.52
PMVK expression in hepatocytes
  RNA-seq results, gene PMVK: 0.33
PNP expression in hepatocytes
  RNA-seq results, gene PNP: 0.05
PNPLA2 expression in hepatocytes
  RNA-seq results, gene PNPLA2: 0.19
RNA-seq, q≤0.05, hepatocytes, genes in the value or listed in the block
  significant modulation of expression of disease genes: significantly (q≤0.05) modulate expression of RMRP
Gene A1BG, hepatocytes
  RNA-seq results: A1BG expression: 0.02
Gene AARS2, hepatocytes
  RNA-seq results: AARS2 expression: 0.27
Gene AASS, hepatocytes
  RNA-seq results: AASS expression: −0.12
Gene ABAT, hepatocytes
  RNA-seq results: ABAT expression: −0.09
Gene ABCA1, hepatocytes
  RNA-seq results: ABCA1 expression: −0.04
Gene ABCB4, hepatocytes
  RNA-seq results: ABCB4 expression: 0.01
Gene ABCB11, hepatocytes
  RNA-seq results: ABCB11 expression: 0.20
Gene ABCC2, hepatocytes
  RNA-seq results: ABCC2 expression: 0.02
Gene ABCC3, hepatocytes
  RNA-seq results: ABCC3 expression: 0.32
Gene ABCC6, hepatocytes
  RNA-seq results: ABCC6 expression: 0.47
Gene ABCD1, hepatocytes
  RNA-seq results: ABCD1 expression: 0.25
Gene ABCD3, hepatocytes
  RNA-seq results: ABCD3 expression: −0.28
Gene ABCG5, hepatocytes
  RNA-seq results: ABCG5 expression: 0.09
Gene ABCG8, hepatocytes
  RNA-seq results: ABCG8 expression: 0.06
Gene ABHD5, hepatocytes
  RNA-seq results: ABHD5 expression: −0.22
Gene ACACA, hepatocytes
  RNA-seq results: ACACA expression: 0.04
Gene ACACB, hepatocytes
  RNA-seq results: ACACB expression: 0.36
Gene ACAD9, hepatocytes
  RNA-seq results: ACAD9 expression: 0.00
Gene ACADSB, hepatocytes
  RNA-seq results: ACADSB expression: −0.29
Gene ACADVL, hepatocytes
  RNA-seq results: ACADVL expression: 0.30
Gene ACOT8, hepatocytes
  RNA-seq results: ACOT8 expression: −0.13
Gene ACOX2, hepatocytes
  RNA-seq results: ACOX2 expression: −0.03
Gene ACOX3, hepatocytes
  RNA-seq results: ACOX3 expression: −0.01
Gene ACSF3, hepatocytes
  RNA-seq results: ACSF3 expression: 0.08
Gene ACSL1, hepatocytes
  RNA-seq results: ACSL1 expression: −0.03
Gene ACSL3, hepatocytes
  RNA-seq results: ACSL3 expression: −0.34
Gene ACTG2, hepatocytes
  RNA-seq results: ACTG2 expression: −1.66
Gene ACTN1, hepatocytes
  RNA-seq results: ACTN1 expression: −0.03
Gene ADA, hepatocytes
  RNA-seq results: ADA expression: 0.16
Gene ADCK3, hepatocytes
  RNA-seq results: ADCK3 expression: −0.02
Gene ADK, hepatocytes
  RNA-seq results: ADK expression: −0.46
Gene ADSL, hepatocytes
  RNA-seq results: ADSL expression: −0.36
Gene AFP, hepatocytes
  RNA-seq results: AFP expression: −0.31
Gene AGK, hepatocytes
  RNA-seq results: AGK expression: −0.24
Gene AGL, hepatocytes
  RNA-seq results: AGL expression: −0.20
Gene AGPAT2, hepatocytes
  RNA-seq results: AGPAT2 expression: 0.36
Gene AGPS, hepatocytes
  RNA-seq results: AGPS expression: −0.31
Gene AGT, hepatocytes
  RNA-seq results: AGT expression: −0.08
Gene AGTR1, hepatocytes
  RNA-seq results: AGTR1 expression: −0.40
Gene AGXT, hepatocytes
  RNA-seq results: AGXT expression: 0.44
Gene AHI1, hepatocytes
  RNA-seq results: AHI1 expression: −0.18
Gene AHSG, hepatocytes
  RNA-seq results: AHSG expression: 0.03
Gene AK1, hepatocytes
  RNA-seq results: AK1 expression: −0.06
Gene AKR1C1, hepatocytes
  RNA-seq results: AKR1C1 expression: −0.24
Gene AKR1C2, hepatocytes
  RNA-seq results: AKR1C2 expression: 0.07
Gene AKR1C4, hepatocytes
  RNA-seq results: AKR1C4 expression: −0.41
Gene AKR1D1, hepatocytes
  RNA-seq results: AKR1D1 expression: −0.04
Gene ALAD, hepatocytes
  RNA-seq results: ALAD expression: 0.07
Gene ALAS1, hepatocytes
  RNA-seq results: ALAS1 expression: −0.13
Gene ALDH1B1, hepatocytes
  RNA-seq results: ALDH1B1 expression: 0.10
Gene ALDH2, hepatocytes
  RNA-seq results: ALDH2 expression: 0.07
Gene ALDH6A1, hepatocytes
  RNA-seq results: ALDH6A1 expression: −0.48
Gene ALDOA, hepatocytes
  RNA-seq results: ALDOA expression: 0.01
Gene ALDOB, hepatocytes
  RNA-seq results: ALDOB expression: −0.08
Gene ALG12, hepatocytes
  RNA-seq results: ALG12 expression: 0.02
Gene ALMS1, hepatocytes
  RNA-seq results: ALMS1 expression: −0.05
Gene ALPL, hepatocytes
  RNA-seq results: ALPL expression: −0.08
Gene AMACR, hepatocytes
  RNA-seq results: AMACR expression: −0.17
Gene AMPD3, hepatocytes
  RNA-seq results: AMPD3 expression: 0.13
Gene AMT, hepatocytes
  RNA-seq results: AMT expression: 0.24
Gene ANGPTL3, hepatocytes
  RNA-seq results: ANGPTL3 expression: −0.42
Gene ANKS4B, hepatocytes
  RNA-seq results: ANKS4B expression: −0.06
Gene ANKS6, hepatocytes
  RNA-seq results: ANKS6 expression: 0.15
Gene ANPEP, hepatocytes
  RNA-seq results: ANPEP expression: 0.07
Gene AOC2, hepatocytes
  RNA-seq results: AOC2 expression: 0.42
Gene AP3B1, hepatocytes
  RNA-seq results: AP3B1 expression: −0.40
Gene APC, hepatocytes
  RNA-seq results: APC expression: −0.20
Gene APOA1, hepatocytes
  RNA-seq results: APOA1 expression: −0.02
Gene APOA2, hepatocytes
  RNA-seq results: APOA2 expression: −0.52
Gene APOA5, hepatocytes
  RNA-seq results: APOA5 expression: 0.13
Gene APOB, hepatocytes
  RNA-seq results: APOB expression: −0.10
Gene APOC2, hepatocytes
  RNA-seq results: APOC2 expression: −0.17
Gene APOC3, hepatocytes
  RNA-seq results: APOC3 expression: −0.06
Gene APOE, hepatocytes
  RNA-seq results: APOE expression: 0.04
Gene APRT, hepatocytes
  RNA-seq results: APRT expression: 0.23
Gene AQP7, hepatocytes
  RNA-seq results: AQP7 expression: −0.41
Gene AQP9, hepatocytes
  RNA-seq results: AQP9 expression: −0.29
Gene ARG1, hepatocytes
  RNA-seq results: ARG1 expression: 0.02
Gene ARG2, hepatocytes
  RNA-seq results: ARG2 expression: −0.34
Gene ARL13B, hepatocytes
  RNA-seq results: ARL13B expression: −0.24
Gene ARSA, hepatocytes
  RNA-seq results: ARSA expression: 0.49
Gene ARSB, hepatocytes
  RNA-seq results: ARSB expression: 0.03
Gene ASL, hepatocytes
  RNA-seq results: ASL expression: 0.25
Gene ASNS, hepatocytes
  RNA-seq results: ASNS expression: −0.22
Gene ASPA, hepatocytes
  RNA-seq results: ASPA expression: −0.10
Gene ASXL1, hepatocytes
  RNA-seq results: ASXL1 expression: 0.09
Gene ATG7, hepatocytes
  RNA-seq results: ATG7 expression: −0.05
Gene ATIC, hepatocytes
  RNA-seq results: ATIC expression: −0.26
Gene ATM, hepatocytes
  RNA-seq results: ATM expression: 0.16
Gene ATP7A, hepatocytes
  RNA-seq results: ATP7A expression: −0.27
Gene ATP7B, hepatocytes
  RNA-seq results: ATP7B expression: 0.00
Gene ATP8B1, hepatocytes
  RNA-seq results: ATP8B1 expression: −0.26
Gene B2M, hepatocytes
  RNA-seq results: B2M expression: −0.52
Gene B9D2, hepatocytes
  RNA-seq results: B9D2 expression: 0.35
Gene BAAT, hepatocytes
  RNA-seq results: BAAT expression: −0.23
Gene BBOX1, hepatocytes
  RNA-seq results: BBOX1 expression: −0.71
Gene BBS10, hepatocytes
  RNA-seq results: BBS10 expression: −0.36
Gene BCHE, hepatocytes
  RNA-seq results: BCHE expression: −0.32
Gene BCKDHB, hepatocytes
  RNA-seq results: BCKDHB expression: −0.10
